Target: T1, C-terminal GST-tagged, recombinant, human IGF-1R, amino acids 954-1367 (Homo sapiens, UniProt P08069)
T1 construct: human IGF-1R, amino acids 954-1367 expressed by baculovirus in Sf21 cells; GST (C); purchased Cell Signaling Technology; host or cells: baculovirus in Sf21 cells
Test: IGF-1R kinase activity, homogenous time-resolved fluorescence (HTRF) in vitro kinase assay
Assay type: biochemical
Details: IGF-1R kinase HTRF assay, ATP 50 μM, biotinylated peptide substrate 0.5 μM, 60 minutes at room temperature
Experimental: IGF-1R kinase activity was assayed by a homogenous time-resolved fluorescence (HTRF) in vitro kinase assay (Mathis, G., HTRF(R) Technology. J Biomol Screen, 1999. 4(6): p. 309-314). Specifically, 10 μL C-terminal GST-tagged, recombinant, human IGF-1R, amino acids 954-1367 expressed by baculovirus in Sf21 cells (Cell Singaling Technology) was mixed with 10 μL inhibitor (various concentrations, 2% final DMSO) and 10 μL of ATP (50 μM final concentration) in reaction buffer (50 mM HEPES, pH […], 2 mM MnCl2, 0.1% BSA and 1 mM DTT, 40 μL final volume). The reaction was initiated by addition of 10 μL of biotinylated peptide substrate (Biotin-Ahx-[…], 0.5 μM final concentration) in a black 384-well plate (Packard). After 60 minutes incubation at room temperature, the reaction was quenched by addition of 60 μL stop/revelation buffer to give 30 mM EDTA, 1 μg/mL streptavidin-APC (Prozyme), 50 ng/mL anti-phosphotyrosine mAb PT66-K Europium Cryptate, 30 mM HEPES, pH 7.5, 120 mM KF, 0.005% Tween-20, 0.05% BSA). The quenched reaction was allowed to stand at room temperature for 1 hour and then read in a time-resolved fluorescence detector (Envision, Perkin Elmer) at 615 nm and 665 nm simultaneously. The ratio between the signal of 615 nm and 665 nm was used in the calculation of the IC50.

T1 sequence (P08069 954-1367): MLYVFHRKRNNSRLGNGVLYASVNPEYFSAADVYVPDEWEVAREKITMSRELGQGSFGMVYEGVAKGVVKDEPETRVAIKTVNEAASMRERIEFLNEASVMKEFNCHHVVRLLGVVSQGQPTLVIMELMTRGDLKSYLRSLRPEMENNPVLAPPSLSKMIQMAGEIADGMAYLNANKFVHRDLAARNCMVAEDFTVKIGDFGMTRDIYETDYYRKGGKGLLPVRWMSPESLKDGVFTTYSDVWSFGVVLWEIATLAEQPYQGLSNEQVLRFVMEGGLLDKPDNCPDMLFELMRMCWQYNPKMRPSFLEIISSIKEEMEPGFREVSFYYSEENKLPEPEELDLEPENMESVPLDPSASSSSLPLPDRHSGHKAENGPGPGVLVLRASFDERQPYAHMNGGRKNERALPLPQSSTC

Compound	IC50 [nM]
CN(C)CCc1cccc(Nc2nccc(-c3c(-c4ccc(OCc5ccccc5)cc4)nc4ccccn34)n2)c1 [Example 1, 4-{2-[4-(benzyloxy)phenyl]imidazo[1,2-a]pyridin-3-yl}-N-{3-[2-(dimethylamino)ethyl]phenyl}pyrimidin-2-amine]	< 25
COc1cc(N2CCOCC2)ccc1Nc1nccc(-c2c(-c3ccc(OCc4ccccc4)cc3)nc3ccccn23)n1 [Example 2, 4-{2-[4-(benzyloxy)phenyl]imidazo[1,2-a]pyridin-3-yl}-N-(2-methoxy-4-morpholin-4-ylphenyl)pyrimidin-2-amine]	101 to 500
COc1ccccc1Nc1nccc(-c2c(-c3ccc(OCc4ccccc4)cc3)nc3ccccn23)n1 [Example 3, 4-{2-[4-(benzyloxy)phenyl]imidazo[1,2-a]pyridin-3-yl}-N-(2-methoxyphenyl)pyrimidin-2-amine]	> 1000
CS(=O)(=O)c1cccc(Nc2nccc(-c3c(-c4ccc(OCc5ccccc5)cc4)nc4ccccn34)n2)c1 [Example 4, 4-{2-[4-(benzyloxy)phenyl]imidazo[1,2-a]pyridin-3-yl}-N-[3-(methylsulfonyl)phenyl]pyrimidin-2-amine]	> 1000
CN(C)S(=O)(=O)c1cccc(Nc2nccc(-c3c(-c4ccc(OCc5ccccc5)cc4)nc4ccccn34)n2)c1 [Example 5, 3-[(4-{2-[4-(benzyloxy)phenyl]imidazo[1,2-a]pyridin-3-yl}pyrimidin-2-yl)amino]-N,N-dimethylbenzenesulfonamide]	> 1000
CS(=O)(=O)c1ccc(Nc2nccc(-c3c(-c4ccc(OCc5ccccc5)cc4)nc4ccccn34)n2)cc1 [Example 6, 4-{2-[4-(benzyloxy)phenyl]imidazo[1,2-a]pyridin-3-yl}-N-[4-(methylsulfonyl)phenyl]pyrimidin-2-amine]	> 1000
c1ccc(COc2ccc(-c3nc4ccccn4c3-c3ccnc(Nc4ccccc4)n3)cc2)cc1 [Example 7, 4-{2-[4-(benzyloxy)phenyl]imidazo[1,2-a]pyridin-3-yl}-N-phenylpyrimidin-2-amine]	> 1000
CN(C)CCc1cccc(Nc2nccc(-c3c(-c4ccc(OCc5ccccc5)cc4F)nc4ccccn34)n2)c1 [Example 8, 4-{2-[4-(benzyloxy)-2-fluorophenyl]imidazo[1,2-a]pyridin-3-yl}-N-{3-[2-(dimethylamino)ethyl]phenyl}pyrimidin-2-amine]	25 to 100
CN(C)CCc1cccc(Nc2nccc(-c3c(-c4ccc(OCc5ccccc5)c(F)c4)nc4ccccn34)n2)c1 [Example 9, 4-{2-[4-(benzyloxy)-3-fluorophenyl]imidazo[1,2-a]pyridin-3-yl}-N-{3-[2-(dimethylamino)ethyl]phenyl}pyrimidin-2-amine]	25 to 100
Cc1cc(OCc2ccccc2)ccc1-c1nc2ccccn2c1-c1ccnc(Nc2cccc(CCN(C)C)c2)n1 [Example 10, 4-{2-[4-(benzyloxy)-2-methylphenyl]imidazo[1,2-a]pyridin-3-yl}-N-{3-[2-(dimethylamino)ethyl]phenyl}pyrimidin-2-amine]	101 to 500
CN(C)CCc1cccc(Nc2nccc(-c3c(-c4ccc(OCc5ccccc5)c(Cl)c4)nc4ccccn34)n2)c1 [Example 11, 4-{2-[4-(benzyloxy)-3-chlorophenyl]imidazo[1,2-a]pyridin-3-yl}-N-{3-[2-(dimethylamino)ethyl]phenyl}pyrimidin-2-amine]	101 to 500
COc1cc(-c2nc3ccccn3c2-c2ccnc(Nc3cccc(CCN(C)C)c3)n2)ccc1OCc1ccccc1 [Example 12, 4-{2-[4-(benzyloxy)-3-methoxyphenyl]imidazo[1,2-a]pyridin-3-yl}-N-{3-[2-(dimethylamino)ethyl]phenyl}pyrimidin-2-amine]	101 to 500
COc1cc(N2CCC(N3CCN(C)CC3)CC2)ccc1Nc1nccc(-c2c(-c3ccc(OCc4ccccc4)cc3)nc3ccccn23)n1 [Example 13, 4-{2-[4-(benzyloxy)phenyl]imidazo[1,2-a]pyridin-3-yl}-N-{2-methoxy-4-[4-(4-methylpiperazin-1-yl)piperidin-1-yl]phenyl}pyrimidin-2-amine]	101 to 500

More lines, now with the values ahead:

IC50 [nM]	Compound
> 1000	Cc1cc(Nc2nccc(-c3c(-c4ccc(OCc5ccccc5)cc4)nc4ccccn34)n2)n[nH]1 [Example 14, 4-{2-[4-(benzyloxy)phenyl]imidazo[1,2-a]pyridin-3-yl}-N-(5-methyl-1H-pyrazol-3-yl)pyrimidin-2-amine]
> 1000	c1ccc(COc2ccc(-c3nc4ccccn4c3-c3ccnc(Nc4cc(C5CC5)n[nH]4)n3)cc2)cc1 [Example 15, 4-{2-[4-(benzyloxy)phenyl]imidazo[1,2-a]pyridin-3-yl}-N-(3-cyclopropyl-1H-pyrazol-5-yl)pyrimidin-2-amine]
101 to 500	COc1ccccc1COc1ccc(-c2nc3ccccn3c2-c2ccnc(Nc3cccc(CCN(C)C)c3)n2)cc1 [Example 16, N-{3-[2-(dimethylamino)ethyl]phenyl}-4-(2-{4-[(2-methoxybenzyl)oxy]phenyl}imidazo[1,2-a]pyridin-3-yl)pyrimidin-2-amine]
101 to 500	COc1ccc(COc2ccc(-c3nc4ccccn4c3-c3ccnc(Nc4cccc(CCN(C)C)c4)n3)cc2)cc1 [Example 17, N-{3-[2-(dimethylamino)ethyl]phenyl}-4-(2-{4-[(4-methoxybenzyl)oxy]phenyl}imidazo[1,2-a]pyridin-3-yl)pyrimidin-2-amine]
101 to 500	CN(C)CCc1cccc(Nc2nccc(-c3c(-c4ccc(OCc5ccccc5F)cc4)nc4ccccn34)n2)c1 [Example 18, N-{3-[2-(dimethylamino)ethyl]phenyl}-4-(2-{4-[(2-fluorobenzyl)oxy]phenyl}imidazo[1,2-a]pyridin-3-yl)pyrimidin-2-amine]
101 to 500	CN(C)CCc1cccc(Nc2nccc(-c3c(-c4ccc(OCc5cccc(F)c5)cc4)nc4ccccn34)n2)c1 [Example 19, N-{3-[2-(dimethylamino)ethyl]phenyl}-4-(2-{4-[(3-fluorobenzyl)oxy]phenyl}imidazo[1,2-a]pyridin-3-yl)pyrimidin-2-amine]
101 to 500	CN(C)CCc1cccc(Nc2nccc(-c3c(-c4ccc(OCc5ccc(F)cc5)cc4)nc4ccccn34)n2)c1 [Example 20, N-{3-[2-(dimethylamino)ethyl]phenyl}-4-(2-{4-[(4-fluorobenzyl)oxy]phenyl}imidazo[1,2-a]pyridin-3-yl)pyrimidin-2-amine]
101 to 500	CC(Oc1ccc(-c2nc3ccccn3c2-c2ccnc(Nc3cccc(CCN(C)C)c3)n2)cc1)c1ccccc1 (centres unmarked) [Example 21, N-{3-[2-(dimethylamino)ethyl]phenyl}-4-{2-[4-(1-phenylethoxy)phenyl]imidazo[1,2-a]pyridin-3-yl}pyrimidin-2-amine]
> 1000	COc1cc(Cl)ccc1Nc1nccc(-c2c(-c3ccc(OCc4ccccc4)cc3)nc3ccccn23)n1 [Example 22, 4-{2-[4-(benzyloxy)phenyl]imidazo[1,2-a]pyridin-3-yl}-N-(4-chloro-2-methoxyphenyl)pyrimidin-2-amine]
25 to 100	COc1cc(-c2nc3ccccn3c2-c2ccnc(Nc3ccc(CCN4CCCC4)cc3)n2)ccc1OCc1ccccc1 [Example 23, 4-{2-[4-(benzyloxy)-3-methoxyphenyl]imidazo[1,2-a]pyridin-3-yl}-N-[4-(2-pyrrolidin-1-ylethyl)phenyl]pyrimidin-2-amine]
25 to 100	COc1cc(-c2nc3ccccn3c2-c2ccnc(Nc3cccc(CCN4CCCC4)c3)n2)ccc1OCc1ccccc1 [Example 24, 4-{2-[4-(benzyloxy)-3-methoxyphenyl]imidazo[1,2-a]pyridin-3-yl}-N-[3-(2-pyrrolidin-1-ylethyl)phenyl]pyrimidin-2-amine]
101 to 500	COc1cc(-c2nc3ccccn3c2-c2ccnc(Nc3cccc(N4CCOCC4)c3)n2)ccc1OCc1ccccc1 [Example 25, 4-{2-[4-(benzyloxy)-3-methoxyphenyl]imidazo[1,2-a]pyridin-3-yl}-N-(3-morpholin-4-ylphenyl)pyrimidin-2-amine]
101 to 500	Cn1cc(Nc2nccc(-c3c(-c4ccc(OCc5ccccc5)cc4)nc4ccccn34)n2)cn1 [Example 26, 4-{2-[4-(benzyloxy)phenyl]imidazo[1,2-a]pyridin-3-yl}-N-(1-methyl-1H-pyrazol-4-yl)pyrimidin-2-amine]
101 to 500	OCCn1cc(Nc2nccc(-c3c(-c4ccc(OCc5ccccc5)cc4)nc4ccccn34)n2)cn1 [Example 27, 2-{4-[(4-{2-[4-(benzyloxy)phenyl]imidazo[1,2-a]pyridin-3-yl}pyrimidin-2-yl)amino]-1H-pyrazol-1-yl}ethanol]
> 1000	Fc1ccc(Nc2nccc(-c3c(-c4ccc(OCc5ccccc5)cc4)nc4ccccn34)n2)cc1 [Example 28, 4-{2-[4-(benzyloxy)phenyl]imidazo[1,2-a]pyridin-3-yl}-N-(4-fluorophenyl)pyrimidin-2-amine]
> 1000	Fc1ccc(Nc2nccc(-c3c(-c4ccc(OCc5ccccc5)cc4)nc4ccccn34)n2)c(F)c1 [Example 29, 4-{2-[4-(benzyloxy)phenyl]imidazo[1,2-a]pyridin-3-yl}-N-(2,4-difluorophenyl)pyrimidin-2-amine]

From US8354422B2, “Pyrimidine inhibitors of kinase activity” (Abbott Laboratories Inc., priority 2009, dated 2013)
